Patent US20260158011A1 (Achieve Life Sciences, Inc., priority 2023, published 2026)
Marks after values point to notes of the source that are not given here.

System: adult e-cigarette users
From the text: A second measurement consisted of biochemically verified continuous vaping abstinence at any time during treatment, with vaping abstinence at Week 3-6 or Week 6-9 for of cytisinicline treatment vs placebo. 7-day point prevalence rates were compared for vaping abstinence (Week 2 to 12) (FIG. 62). An additional measurement included reduction in daily vaping as measured by cotinine, where cytisinicline treatment vs placebo for a reduction in nicotine vaping using weekly quantitative cotinine levels from Week 2 to Week 12. Safety was assessed by adverse effects and serious adverse effects, considering number, severity, and attribution to study drug.

[1] = by Preferred Term table, 12 Weeks, N = 106, Safety Set
[2] = overall summary, 12 Weeks, N = 106, Safety Set
[3] = possibly, probably or definitely related, 12 Weeks, N = 106, Safety Set

## O=c1cccc2n1C[C@@H]1CNC[C@H]2C1 [cytisine, (−)-Cytisine]
12 Weeks, N = 106, Safety Set
  TEAE Migraine, subjects n: 1 n
  TEAE Musculoskeletal chest pain, subjects %: (0.9) %
  TEAE Musculoskeletal chest pain, subjects n: 1 n
  TEAE Nasal congestion, subjects: 0 n (%)
  TEAE Nasopharyngitis, subjects: 0 n (%)
  TEAE Nausea, subjects %: (4.7) %
  TEAE Nausea, subjects n: 5 n
  TEAE Neck pain, subjects %: (1.9) %
  TEAE Neck pain, subjects n: 2 n
  TEAE Oropharyngeal pain, subjects %: (1.9) %
  TEAE Oropharyngeal pain, subjects n: 2 n
  TEAE Otitis media, subjects: 0 n (%)
  TEAE Outcome Fatal: 0 n (%)/Events
  TEAE Outcome Not recovered/Not resolved, Events: 23 Events
  TEAE Outcome Not recovered/Not resolved, subjects: 14 (13.2) n (%)
  TEAE Outcome Recovered/Resolved with sequelae: 0 n (%)/Events
  TEAE Outcome Recovered/Resolved, Events: 93 Events
  TEAE Outcome Recovered/Resolved, subjects: 47 (44.3) n (%)
  TEAE Outcome Recovering/Resolving, Events: 3 Events
  TEAE Outcome Recovering/Resolving, subjects: 3 (2.8) n (%)
  TEAE Pain in jaw, subjects: 0 n (%)
  TEAE Panic attack, subjects %: (1.9) %
  TEAE Panic attack, subjects n: 2 n
  TEAE Pelvic pain, subjects %: (0.9) %
  TEAE Pelvic pain, subjects n: 1 n
  TEAE Post viral fatigue syndrome, subjects: 0 n (%)
  TEAE Pregnancy, subjects: 0 n (%)
  TEAE Procedural anxiety, subjects %: (0.9) %
  TEAE Procedural anxiety, subjects n: 1 n
  TEAE Pyrexia, subjects: 0 n (%)
  TEAE Relationship Definite, Events: 3 Events
  TEAE Relationship Definite, subjects: 3 (2.8) n (%)
  TEAE Relationship Not Related (first line, total of Not Related and Unlikely), Events: 65 Events
  TEAE Relationship Not Related (first line, total of Not Related and Unlikely), subjects: 38 (35.8) n (%)
  TEAE Relationship Not Related (second line, sub-category), Events: 55 Events
  TEAE Relationship Not Related (second line, sub-category), subjects: 32 (30.2) n (%)
  TEAE Relationship Possible, Events: 29 Events
  TEAE Relationship Possible, subjects: 17 (16.0) n (%)
  TEAE Relationship Probable, Events: 22 Events
  TEAE Relationship Probable, subjects: 16 (15.1) n (%)
  TEAE Relationship Unlikely, Events: 10 Events
  TEAE Relationship Unlikely, subjects: 9 (8.5) n (%)
  TEAE Restless legs syndrome, subjects %: (0.9) %
  TEAE Restless legs syndrome, subjects n: 1 n
  TEAE Sensitive skin, subjects %: (0.9) %
  TEAE Sensitive skin, subjects n: 1 n
  TEAE Severity Mild, Events: 92 Events
  TEAE Severity Mild, subjects: 50 (47.2) n (%)
  TEAE Severity Moderate, Events: 26 Events
  TEAE Severity Moderate, subjects: 16 (15.1) n (%)
  TEAE Severity Severe, Events: 1 Events
  TEAE Severity Severe, subjects: 1 (0.9) n (%)
  TEAE Sinus congestion, subjects %: (0.9) %
  TEAE Sinus congestion, subjects n: 1 n
  TEAE Sinusitis, subjects: 0 n (%)
  TEAE Stress, subjects %: (0.9) %
  TEAE Stress, subjects n: 1 n
  TEAE Thirst, subjects %: (0.9) %
  TEAE Thirst, subjects n: 1 n
  TEAE Tooth extraction, subjects: 0 n (%)
  TEAE Trismus, subjects: 0 n (%)
  TEAE Upper respiratory tract infection, subjects %: (5.7) %
  TEAE Upper respiratory tract infection, subjects n: 6 n
  TEAE Urinary tract infection, subjects %: (0.9) %
  TEAE Urinary tract infection, subjects n: 1 n
  TEAE Vasectomy, subjects %: (0.9) %
  TEAE Vasectomy, subjects n: 1 n
  TEAE Vomiting, subjects %: (0.9) %
  TEAE Vomiting, subjects n: 1 n
  TEAE Wisdom teeth removal, subjects %: (0.9) %
  TEAE Wisdom teeth removal, subjects n: 1 n
Cytisinicline 12 wks (N = 106)
  Adverse event Abnormal dreams, %: 12.3%
  Adverse event Anxiety, %: 9.4%
  Adverse event Fatigue, %: 5.7%
  Adverse event Headache, %: 6.6%
  Adverse event Insomnia, %: 10.4%
  Adverse event Nausea, %: 4.7%
  Adverse event Upper respiratory tract infection, %: 5.7%
  At Least One TEAE: 54 (50.9) n (%)
  Subjects with At Least One TEAE, %: 50.9%
  TEAE relationship: Not Related: 39 (35.8) n (%)
  TEAE relationship: Related: 30 (28.3) n (%)
  Treatment-emergent adverse events: Mild: 50 (47.2) n (%)
  Treatment-emergent adverse events: Moderate: 16 (15.1) n (%)
Cytisinicline 12 wks (N = 106), abnormal dreams
  Treatment-emergent adverse events: Severe: 1 (0.9)* n (%)
[1]
  At Least One TEAE, subjects %: (50.9) %
  At Least One TEAE, subjects n: 54 n
Cytisinicline arm, 12 weeks
  Rate of adverse events: 50.9%
human, in vivo
  Adverse event COVID-19, %: 3 (2.8) %
  TEAE COVID-19, subjects %: (2.8) %
  TEAE COVID-19, subjects n: 3 n
  TEAE Influenza, subjects %: (1.9) %
  TEAE Influenza, subjects n: 2 n
[2]
  At Least One TEAE, Events: 119 Events
  At Least One TEAE, subjects: 54 (50.9) n (%)
[3]
  TEAE Relationship Related, Events: 54 Events
  TEAE Relationship Related, subjects: 30 (28.3) n (%)
